Laboratory results: paper PMC9780064, “Structural analysis of cannabinoids against EGFR-TK leads a novel target against EGFR-driven cell lines” (Current Research in Pharmacology and Drug Discovery, 2022)

Legend:
[1] = biological target: T1, EGFR-TK (tyrosine kinase domain of EGFR) (Homo sapiens, UniProt P00533); test: SPR (OpenSPR), immobilised EGFR-TK, […] Langmuir kinetic fit; assay type: binding
T1 construct: cloned into pCold I, expressed in E. coli Rosetta (DE3); DEAE, Resource Q and Superdex 200 purification; immobilised by amine coupling for SPR
T1 sequence (P00533 696-1022 limits assumed): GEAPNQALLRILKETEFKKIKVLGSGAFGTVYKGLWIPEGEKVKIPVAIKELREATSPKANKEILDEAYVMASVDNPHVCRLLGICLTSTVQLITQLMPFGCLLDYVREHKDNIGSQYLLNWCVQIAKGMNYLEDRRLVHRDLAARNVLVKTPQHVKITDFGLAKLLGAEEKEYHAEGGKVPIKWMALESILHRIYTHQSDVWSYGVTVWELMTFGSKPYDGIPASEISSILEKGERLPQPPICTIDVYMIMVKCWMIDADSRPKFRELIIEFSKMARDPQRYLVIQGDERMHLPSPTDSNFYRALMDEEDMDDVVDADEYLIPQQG

[2] = biological target: T1, EGFR-TK (tyrosine kinase domain of EGFR); test: ADP-Glo kinase assay, poly(Glu:Tyr) substrate; assay type: biochemical; settings: read-out: EGFR-TK inhibition IC50

`CCCCCc1cc(O)c(C/C=C(\C)CCC=C(C)C)c(O)c1` [CBG] was tested, and the Kd [1] was 5.61 µM and the IC50 [2] was 0.0299 ± 0.0021 µM.
For `C=C(C)[C@@H]1CCC(C)=C[C@H]1c1c(O)cc(CCCCC)cc1O` [CBD], the Kd [1] was 8.35 µM and the IC50 [2] was 0.0326 ± 0.00316 µM.
`CCCCCc1cc(O)c2c(c1)OC(C)(C)c1ccc(C)cc1-2` [CBN] was tested, and the Kd [1] was 32.1 µM and the IC50 [2] was 0.0788 ± 0.0022 µM.
